pIC50: −log10 of the molar value. Values after ≈ are worked out from the molar mass of the structure shown. Where a name gives a salt, the structure may show the parent alone. Read-outs that look alike come from different tables or passages of the source.
Assays:
ABTS radical method = conditions: individual compounds; maximum assay concentration 100 mM
Method: (§1) Five antioxidant methods were performed with SlEOs and their main individual compounds in triplicate. In the oxygen radical absorbance capacity (ORAC) assay, peroxyl radicals are produced by 2,2′-Azobis(2-methylpropionamidine) dihydrochloride (AAPH), which reacts with fluorescein giving a non-fluorescent compound [61]. The antioxidants are able to scavenge these peroxyl radicals. Trolox was used as the reference antioxidant. The 2,2-diphenyl-1-picrylhydrazyl (DPPH) and 2,2′-azino-bis(3-ethylbenzothiazoline-6-sulphonic acid) (ABTS) methods measure the bleaching produced by the reduction of the coloured DPPH and ABTS radicals. Trolox was used as the reference antioxidant. The RdP method measure the ability to reduce ferric ions, according to the method of Oyaizu. Ascorbic acid was the reference antioxidant used in this method. The ChP method measured the ability to chelate Fe^2+ ion, following the method of Miguel et al.. EDTA was used as reference antioxidant. The SlEOs were diluted in 100% ethanol in the DPPH, ABTS, RdP and ChP methods, whereas in the ORAC method, SlEOs were diluted in 15% ethanol to obtain a final concentration of 5% ethanol in the reaction medium. All measurements were made at the end-point of the reaction, except in the ORAC method (Figure S5).

[1] = Chelating power (ChP) method; conditions: individual compounds; maximum assay concentration 100 mM
Method: as §1

LOX = target: T1, LOX (Glycine max, UniProt P08170); assay: LOX inhibition assay; type: biochemical, Glycine max (soybean)
T1 construct: purchased Sigma-Aldrich
T1 sequence (P08170 whole entry): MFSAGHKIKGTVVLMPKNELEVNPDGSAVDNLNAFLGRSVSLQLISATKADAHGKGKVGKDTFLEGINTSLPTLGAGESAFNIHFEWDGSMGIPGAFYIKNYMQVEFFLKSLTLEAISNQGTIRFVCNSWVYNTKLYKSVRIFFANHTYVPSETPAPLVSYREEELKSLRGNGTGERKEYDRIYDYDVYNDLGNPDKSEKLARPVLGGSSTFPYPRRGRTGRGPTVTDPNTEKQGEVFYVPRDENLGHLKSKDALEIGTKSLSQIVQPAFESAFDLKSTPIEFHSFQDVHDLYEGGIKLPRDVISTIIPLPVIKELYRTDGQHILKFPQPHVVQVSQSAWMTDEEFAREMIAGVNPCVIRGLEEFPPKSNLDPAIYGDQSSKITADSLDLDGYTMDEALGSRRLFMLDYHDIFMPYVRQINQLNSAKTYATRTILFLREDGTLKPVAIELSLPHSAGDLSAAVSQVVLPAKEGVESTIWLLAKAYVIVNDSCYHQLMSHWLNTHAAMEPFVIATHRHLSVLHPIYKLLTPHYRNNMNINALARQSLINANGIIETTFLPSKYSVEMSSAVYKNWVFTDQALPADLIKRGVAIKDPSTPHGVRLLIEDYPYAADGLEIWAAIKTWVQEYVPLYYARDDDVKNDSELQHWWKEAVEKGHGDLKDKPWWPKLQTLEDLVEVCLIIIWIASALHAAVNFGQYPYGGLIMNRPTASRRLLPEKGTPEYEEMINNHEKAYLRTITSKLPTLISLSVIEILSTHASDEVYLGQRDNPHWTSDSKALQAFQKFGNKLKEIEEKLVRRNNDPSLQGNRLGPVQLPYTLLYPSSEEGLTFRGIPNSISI
Method: A LOX preparation from Glycine max (soybean) was acquired from Sigma-Aldrich. LOX inhibitory activity was determined as previously reported, based on the absorption at 234 nm of the hydroperoxyde conjugated dienes (ε = 25,000 M^−1 cm^−1), which are generated from the oxidation of linoleic acid in the presence of oxygen and LOX. This assay was carried out on a double beam Lambda 35 spectrophotometer (PerkinElmer, Madrid, Spain) with the UV-Winlab software, at 25 °C.
The DI in both antienzymatic assays were calculated using Equation (1):(1) DI (%)= ν0−νi/ν0 × 100 where v0 and v1 are the steady state rates without and with inhibitor, respectively. The inhibitions of LOX were reported as DI at 150 µg/mL of each SlEO. […] To calculate the IC50 values, data of DI (%) of seven different concentrations of each SlEO were plotted and fitted by non-linear regression according to Equation (2) using Sigma Plot software (systatsoftware.com) (Figure S6). The inhibitions of LOX and AChE by individual compounds were reported as IC50 or DI, depending on their inhibition capacities and solubilities.
(2) DI (%)= DImax [I]0/IC50+ [I]0

DPPH radical method = conditions: individual compounds; maximum assay concentration 100 mM
Method: as §1

[2] = Reducing power (RdP) method; conditions: individual compounds; maximum assay concentration 100 mM
Method: as §1

[3] = Oxygen radical absorbance capacity (ORAC) assay; conditions: individual compounds, maximum assay concentration 100 mM
Method: as §1

[4] = tested on: Candida albicans ATCC 10231; assay: Broth microdilution MIC and MFC; type: cell-based
Method: (§2) The following test microorganisms used in this work were acquired from Sigma-Aldrich: Pseudomonas aeruginosa ATCC 9027, Escherichia coli ATCC 8739, Staphylococcus aureus ATCC 6538, and Candida albicans ATCC 10231. The stock cultures were preserved in TSB or YPD with 15% glycerol, for bacteria and yeast cells, respectively, at −80 °C. Isolated colonies from an 18- to 24-h agar plate were transferred to MHB for bacteria and RPMI-1640 for C. albicans.
(§3) MIC were determined using the broth microdilution method in 96-well microplates, according to the M07-A10 [69] standard for bacteria and the M27-A3 [70] for Candida. Briefly, two-fold dilutions of a 40 µL/mL SlEOs were prepared to obtain a final concentration range of 0.08–20 µL/mL with 0.5% Tween®80 and 2.5% DMSO. The antimicrobial activities of main compounds were also tested in the concentration range of 0.12–15 mM with 0.5% Tween®80 and 2.5% DMSO as solvent. The final strain concentration was 5 × 10^5 CFU/mL in MHB for the bacteria and 0.5−2.5 × 10^3 in RPMI-1640 for the yeast. These plates were incubated for 24 h for bacteria and 48 h for Candida, both at 35 ± 1 °C, under aerobic conditions on a plate shaker at 100 rpm. Streptomycin (0.06–8.00 µg/mL) and fluconazole (0.13–16 µg/mL) were used as reference antibacterial and antifungal compound, respectively. […] MIC is defined as the lowest concentration of EO or individual compound with no visible growth of microorganisms, at the end of the incubation period. […] All determinations were carried out in triplicate.

[5] = tested on: Escherichia coli ATCC 8739; assay: Broth microdilution MIC and MBC; type: cell-based
Method: as §2, §3

[6] = tested on: Staphylococcus aureus ATCC 6538; assay: Broth microdilution MIC and MBC; type: cell-based
Method: as §2, §3

| Compound | ABTS (ABTS radical method) | ChP [1] | DPPH (DPPH radical method) | RdP [2] | ORAC [3] | MIC ([4]; ATCC10231, 48 h, read-out: MIC) [µg/mL] | MFC ([4]; ATCC10231, read-out: MFC) [µg/mL] | MIC ([5]; ATCC8739, 24 h, read-out: MIC) [µg/mL] | MBC ([5]; ATCC8739, read-out: MBC) [µg/mL] | MIC ([6]; ATCC6538, 24 h, read-out: MIC) [µg/mL] | MBC ([6]; ATCC6538, read-out: MBC) [µg/mL] | further results |
| --- | --- | --- | --- | --- | --- | --- | --- | --- | --- | --- | --- | --- |
| CC12CCC(CC1=O)C2(C)C (stereo not shown) [Camphor] | N/D (Activity lower than 0.05 units at a maximum assay concentration of 100 mM) | N/D (Activity lower than 0.05 units at a maximum assay concentration of 100 mM) | N/D (Activity lower than 0.05 units at a maximum assay concentration of 100 mM) | N/D (Activity lower than 0.05 units at a maximum assay concentration of 100 mM) | N/D (Activity lower than 0.05 units at a maximum assay concentration of 100 mM) | > 2300 | > 2300 | > 2300 | > 2300 | > 2300 | > 2300 | pIC50 (LOX): 2.56; ORAC ([3]; listed as camphor): did not show any ORAC antioxidant activity |
| C=CC(C)(CCC=C(C)C)OC(C)=O (stereo not shown) [Linalyl acetate] | 0.1 ± 0.0 µmol TE/mmol X | 27.4 ± 2.1 µmol EDTAE/mmol X | N/D (Activity lower than 0.05 units at a maximum assay concentration of 100 mM) | N/D (Activity lower than 0.05 units at a maximum assay concentration of 100 mM) | 207.1 ± 13.2 µmol TE/mmol X |  |  |  |  |  |  | MFC ([4]; ATCC10231): > 3000 µg/mL; MIC ([4]; ATCC10231, 48 h): > 3000 µg/mL; MBC ([5]; ATCC8739): > 3000 µg/mL; MIC ([5]; ATCC8739, 24 h): > 3000 µg/mL; MBC ([6]; ATCC6538): > 3000 µg/mL; MIC ([6]; ATCC6538, 24 h): 3000 µg/mL |
| C/C1=C\CC/C(C)=C/CC(C)(C)/C=C/C1 [α-Humulene] |  |  |  |  |  |  |  |  |  |  |  | MFC [4]: >3000 µg/mL; MIC ([4]; 48 h): >3000 µg/mL; MBC [5]: >3000 µg/mL; MIC ([5]; 24 h): >3000 µg/mL; MBC [6]: 3000 µg/mL (≈ 14.7 mM); MIC ([6]; 24 h): 1600 µg/mL (≈ 7.83 mM) |
| CC1(C)C2CCC1(C)C(O)C2 (stereo not shown) [Borneol] | N/D (Activity lower than 0.05 units at a maximum assay concentration of 100 mM) | N/D (Activity lower than 0.05 units at a maximum assay concentration of 100 mM) | N/D (Activity lower than 0.05 units at a maximum assay concentration of 100 mM) | N/D (Activity lower than 0.05 units at a maximum assay concentration of 100 mM) | N/D (Activity lower than 0.05 units at a maximum assay concentration of 100 mM) | 600 (≈ 3.89 mM) | 600 (≈ 3.89 mM) | 1100 (≈ 7.13 mM) | 1100 (≈ 7.13 mM) | 300 (≈ 1.94 mM) | 300 (≈ 1.94 mM) |  |
| C=C1CCC2CC1C2(C)C (stereo not drawn) [β-Pinene] | 0.1 ± 0.0 µmol TE/mmol X | 1.8 ± 0.1 µmol EDTAE/mmol X | N/D (Activity lower than 0.05 units at a maximum assay concentration of 100 mM) | N/D (Activity lower than 0.05 units at a maximum assay concentration of 100 mM) | 26.6 ± 1.6 µmol TE/mmol X | > 2000 | > 2000 | > 2000 | > 2000 | > 2000 | > 2000 |  |
| OC(Cn1cncn1)(Cn1cncn1)c1ccc(F)cc1F [Fluconazole, reference compound] |  |  |  |  |  | 4 (≈ 0.0131 mM) | 4 (≈ 0.0131 mM) |  |  |  |  |  |
| [H]/N=C(/N)N[C@H]1[C@H](O)[C@@H](O)[C@H](O[C@@H]2O[C@@H](C)[C@](O)(C=O)[C@H]2O[C@@H]2O[C@@H](CO)[C@H](O)[C@@H](O)[C@@H]2NC)[C@@H](N/C(N)=N\[H])[C@@H]1O [Streptomycin sulfate, reference compound] |  |  |  |  |  |  |  | 1 | 1 | 1 | 1 |  |
| CC(C)C12CCC(C)(O)C1C2 (stereo not shown) [Sabinene hydrate] | 0.5 ± 0.0 µmol TE/mmol X | 6.7 ± 0.6 µmol EDTAE/mmol X | N/D (Activity lower than 0.05 units at a maximum assay concentration of 100 mM) | N/D (Activity lower than 0.05 units at a maximum assay concentration of 100 mM) | N/D (Activity lower than 0.05 units at a maximum assay concentration of 100 mM) |  |  |  |  |  |  |  |
| C=C1CCC2(C(C)C)CC12 (stereo not shown) [Sabinene] |  |  |  |  |  | > 2000 | > 2000 | > 2000 | > 2000 | > 2000 | > 2000 |  |
| C=C1CC/C=C(\C)CC[C@@H]2[C@@H]1CC2(C)C [β-Caryophyllene, (E)-β-Caryophyllene] | N/D (Activity lower than 0.05 units at a maximum assay concentration of 100 mM) | 7.1 ± 0.5 µmol EDTAE/mmol X | N/D (Activity lower than 0.05 units at a maximum assay concentration of 100 mM) | N/D (Activity lower than 0.05 units at a maximum assay concentration of 100 mM) | 394.7 ± 14.5 µmol TE/mmol X | > 3100 | > 3100 | > 3100 | > 3100 | > 3100 | > 3100 |  |
| CC1=CCC(C(C)C)=CC1 [γ-Terpinene] | 2.5 ± 0.1 µmol TE/mmol X | 0.3 ± 0.0 µmol EDTAE/mmol X | 0.3 ± 0.0 µmol TE/mmol X | 0.3 ± 0.0 µmol AAE/mmol X | 171.4 ± 10.3 µmol TE/mmol X |  |  |  |  |  |  |  |
| Cc1ccc(C(C)C)cc1 [p-Cymene] | 0.1 ± 0.0 µmol TE/mmol X | 20.1 ± 1.6 µmol EDTAE/mmol X | N/D (Activity lower than 0.05 units at a maximum assay concentration of 100 mM) | N/D (Activity lower than 0.05 units at a maximum assay concentration of 100 mM) | N/D (Activity lower than 0.05 units at a maximum assay concentration of 100 mM) | 500 (≈ 3.73 mM) | 500 (≈ 3.73 mM) | 1000 (≈ 7.45 mM) | 2000 (≈ 14.9 mM) | > 2000 | > 2000 |  |
| C=CC(=C)CCC=C(C)C [Myrcene] | N/D (Activity lower than 0.05 units at a maximum assay concentration of 100 mM) | 2.5 ± 0.2 µmol EDTAE/mmol X | N/D (Activity lower than 0.05 units at a maximum assay concentration of 100 mM) | N/D (Activity lower than 0.05 units at a maximum assay concentration of 100 mM) | N/D (Activity lower than 0.05 units at a maximum assay concentration of 100 mM) | > 2100 | > 2100 | > 2100 | > 2100 | > 2100 | > 2100 |  |
| CC1=CC=C(C(C)C)CC1 [α-Terpinene] | 4.0 ± 0.2 µmol TE/mmol X | 62.2 ± 4.7 µmol EDTAE/mmol X | 0.3 ± 0.0 µmol TE/mmol X | 1.9 ± 0.1 µmol AAE/mmol X | N/D (Activity lower than 0.05 units at a maximum assay concentration of 100 mM) |  |  |  |  |  |  |  |

— publication PMC6152226, “Composition and Antioxidant, Antienzymatic and Antimicrobial Activities of Volatile Molecules from Spanish Salvia lavandulifolia (Vahl) Essential Oils” (Molecules : A Journal of Synthetic Chemistry and Natural …, 2017)
